Experimental data as given in US20110263647A1 (AMGEN INC., priority 2009, published 2011).
Where two headings read alike, the source gives them in different places.

Experiments:
CYP2D6 = biological target: T1, CYP2D6 (Homo sapiens, UniProt P10635); assay: CYP2D6 inhibition assay (bufuralol, pooled human liver microsomes); type: in vitro ADME; conditions: pH 7.4, probe bufuralol (5 μM), test compound 3 μM, human liver microsomes 0.25 mg/mL
T1 construct: tissue XenoTech LLC Lot 0610351; host or cells: pooled human liver microsomes
Method: (§1) Midazolam was obtained from BD Gentest (Waltham, Mass.); 1′ hydroxy midazolam and 1-hydroxy bufuralol maleate were obtained from Ultrafine Chemicals (Manchester, UK); bufuralol HCl, ketoconazole, quinidine, potassium phosphate, and NADPH were obtained from Sigma (St. Louis, Mo.). Test compounds were prepared at 10 mM concentration in DMSO (Mallinckrodt Inc., St. Louis, Mo.). NADPH was prepared at 10 mM concentration in a pH 7.4 buffer (8.3 mg/mL 66.7 mM potassium phosphate). Midazolam was prepared at 1 mM concentration in deionized water (Amgen, Thousand Oaks, Calif.), and bufuralol was prepared at 2 mM concentration in deionized water. A stock solution of ketoconazole was prepared at 37 mM concentration in DMSO, and quinidine was prepared at 500 uM concentration in DMSO. Formic acid in acetonitrile (0.05%, ACN) was used as a quench solution (Sigma-Aldrich, St. Louis, Mo.). All solvents used for LC/MS were of chromatographic grade. Pooled human liver microsomes (Lot 0610351) were purchased from XenoTech LLC, (Lenexa, Kans.).
Pooled human liver microsomes (0.25 mg/mL) were incubated at 37° C. in a phosphate buffer (66.7 mM potassium phosphate at pH 7.4) with the selective CYP2D6 substrate bufuralol at a concentration of 5 μM in the presence and absence of test compound (3 μM). The reaction was started with the addition of NADPH (1 mM final concentration). The reaction was stopped after 10 minutes by addition of formic acid in acetonitrile. 1-Hydroxybufuralol metabolite formation was measured by an HPLC MS detection method (mobile phases for HPLC were: 0.1% AcOH in 5% MeOH, and 0.1% AcOH in 95% MeOH; the HPLC column was an Onyx Monolithic C18 CHO-7645 HPLC column from Phenomenex; Shimadzu LC-10ADVP equipped Biomek FX Liquid handling system and CTC Analytics PAL well auto-sampler; Mass spectrometer: Applied Biosystems API 3000 using Analyst 1.4.1 software). Inhibition was determined by the ratio of the amount of 1-hydroxy bufuralol metabolite formed metabolite in the presence of test compound to the amount of metabolite in the absence of test compound.

CYP3A4 = biological target: T2, CYP3A4 (Homo sapiens, UniProt P08684); assay: CYP3A4 inhibition assay (midazolam, pooled human liver microsomes); type: in vitro ADME; conditions: pH 7.4, probe midazolam (2.5 μM), test compound 3 μM, human liver microsomes 0.1 mg/mL
T2 construct: tissue XenoTech LLC Lot 0610351; host or cells: pooled human liver microsomes
Method: as §1
Pooled human liver microsomes (0.1 mg/mL) were incubated at 37° C. in a phosphate buffer (66.7 mM potassium phosphate at pH 7.4) with the selective CYP3A substrate midazolam at a concentration of 2.5 μM in the presence and absence of test compound (3 μM). The reaction was started with the addition of NADPH (1 mM final concentration). The reaction was stopped after 10 minutes by addition of formic acid in acetonitrile. 1′-Hydroxymidazolam metabolite formation was measured by an HPLC MS detection method (mobile phases were 0.1% AcOH in 5% MeOH, and 0.1% AcOH in 95% MeOH; the HPLC column was an Onyx Monolithic C18 CHO-7645 HPLC column obtained from Phenomenex; Shimadzu LC-10ADVP equipped Biomek FX Liquid handling system and CTC Analytics PAL well auto-sampler; Mass spectrometer: Applied Biosystems API 3000 using Analyst 1.4.1 software). Inhibition was determined by the ratio of the amount of 1′-hydroxy midazolam metabolite formed in the presence of test compound to the amount of metabolite found in the absence of test compound Inhibition was measured relative to the rate of formation of 1′-hydroxy midazolam incubated at 2.5 μM without test compound.

[1] = In vivo pharmacokinetics, IV and oral gavage; set-up: species or system male Sprague-Dawley rats; conditions: rat; for FPO: Table 5; for Fpo (%): Table 6; for clearance / AUC(0-t) / Cmax / Vd: male, Sprague-Dawley, plasma; for Vd: read-out: Vss
Method: In vivo pharmacokinetic parameters were determined by measuring systemic plasma exposure in male Sprague-Dawley rats (Charles River Laboratories or Taconic, Oxnard, Calif.) by intravenous administration (N=3 fed rats: 2 mg/kg tail vein injection in DMSO) and oral gavage (N=3 fasted rats: 5 mg/kg in 1% Tween 80-2% HPMC-97% deionized water-pH 2.0 vehicle) (Comparative Example 18′ was only dosed IV and at 0.5 mg/kg). DMSO was obtained from Mallinckrodt Inc.; Tween 80 was obtained from Croda; HPMC is Methocel E50 Premium LV, obtained from Dow Excipients. Following oral administration, blood was drawn (250 μL) at 0.25, 0.5, 1, 2, 4, 6, 8, 12, and 16 hours. Following iv administration, blood was drawn (250 μL) at 0.083, 0.25, 0.5, 1, 2, 4, 6, 8, and 16 hours. Blood samples were drawn using a Culex® In Vivo Sampling System (BASi) and collected in BD Microtainer® tubes containing Lithium Heparin (BD). Plasma was obtained by centrifugation of blood at 14000 g and 2-8° C. for five minutes using an Eppendorf 5417R Centrifuge System. Plasma samples were mixed with 2× volume of acetonitrile (Sigma-Aldrich, St. Louis, Mo.). The mixture was stirred briefly using a vortex mixer and then centrifuged at 2867 g for 5 minutes in a Beckman Coulter Allegra 25R equipped with a Type S5700 rotor. The supernatant was removed and diluted 2× with mobile phase A (5/94.9/0.1 v/v/v MeOH/water/AcOH). Plasma concentrations were determined using liquid chromatography/tandem mass spectrometry, with electrospray ionization (ESI) and multiple reaction monitoring in the positive ion mode (Sciex API 3000 mass spectrometer connected to a Shimadzu LC-20AD pump and a LEAP PAL autosampler. Typical conditions used for HPLC were: mobile phase A=5/94.9/0.1 v/v/v MeOH/water/AcOH and mobile phase B=95/4.9/0.1 v/v/v MeOH/water/AcOH; HPLC column was a Varian MonoChrom C18.3μ for 2×30 mm and 51.1 for 2×50 mm) Instrument response was calibrated by a standard curve over 0.1-2000 ng/mL concentration range, and the lower limit of quantitation was 0.1-2.5 ng/mL. Peak areas were integrated on a Windows 2000 computer using the Sciex program Analyst® (Version 1.4.1). Following peak area integration, the data were exported to the software package (Watson® Non-GLP PROD (Version 7.0.0.01, Thermo Electron Corp., Waltham, Mass.)), where concentrations were determined by a weighted linear regression of peak area versus the nominal concentrations of the calibration standards. Calculations were performed on unrounded numbers. The Watson® Non-GLP PROD software was used to determine precision and accuracy for the calibration standards. Noncompartmental analysis of plasma concentration data was used to generate PK parameters such as clearance (CL, L/h/kg), volume of distribution (Vss, L/kg), area under the curve (AUC, ng·h/mL) and secondary parameters such as half-life (t1/2, h) and oral bioavailability (% F, %). This was done using WinNonlin Enterprise software (Version 5.1.1, from Pharsight Corp., Mountain View, Calif.). References for pharmacokinetic analysis include: Gabrielsson and Weiner (1997) Pharmacokinetic and Pharmacodynamic Data Analysis Concepts and Applications, 2nd ed., Swedish Pharmaceutical Press, Stockholm; Gibaldi and Perrier (1982) Pharmacokinetics, 2nd ed., Marcel Dekker, New York. Rowland and Tozer (1995) Clinical Pharmacokinetics: Concepts and Applications, 3rd ed., Lippincott Williams & Wilkins, Philadelphia.

[2] = IV 2 mg/kg, read-out: IV AUClast
[3] = PO 5 mg/kg, read-out: Oral AUClast
[4] = PO 5 mg/kg, read-out: Oral Cmax

T2 sequence (P08684 whole entry): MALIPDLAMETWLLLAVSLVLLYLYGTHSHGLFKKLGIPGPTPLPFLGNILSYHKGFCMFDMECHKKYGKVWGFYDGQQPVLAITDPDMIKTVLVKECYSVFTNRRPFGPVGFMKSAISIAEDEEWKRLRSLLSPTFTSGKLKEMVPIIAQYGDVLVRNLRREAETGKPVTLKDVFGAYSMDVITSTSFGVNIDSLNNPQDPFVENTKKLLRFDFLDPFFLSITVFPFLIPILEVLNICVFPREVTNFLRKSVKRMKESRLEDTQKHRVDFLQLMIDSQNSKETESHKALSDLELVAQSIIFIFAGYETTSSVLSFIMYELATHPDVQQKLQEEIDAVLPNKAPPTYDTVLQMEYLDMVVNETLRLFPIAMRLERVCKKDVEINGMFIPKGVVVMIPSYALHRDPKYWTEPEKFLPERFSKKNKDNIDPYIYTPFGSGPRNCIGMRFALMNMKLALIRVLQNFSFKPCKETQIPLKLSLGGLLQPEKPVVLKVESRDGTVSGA
T1 sequence (P10635 whole entry): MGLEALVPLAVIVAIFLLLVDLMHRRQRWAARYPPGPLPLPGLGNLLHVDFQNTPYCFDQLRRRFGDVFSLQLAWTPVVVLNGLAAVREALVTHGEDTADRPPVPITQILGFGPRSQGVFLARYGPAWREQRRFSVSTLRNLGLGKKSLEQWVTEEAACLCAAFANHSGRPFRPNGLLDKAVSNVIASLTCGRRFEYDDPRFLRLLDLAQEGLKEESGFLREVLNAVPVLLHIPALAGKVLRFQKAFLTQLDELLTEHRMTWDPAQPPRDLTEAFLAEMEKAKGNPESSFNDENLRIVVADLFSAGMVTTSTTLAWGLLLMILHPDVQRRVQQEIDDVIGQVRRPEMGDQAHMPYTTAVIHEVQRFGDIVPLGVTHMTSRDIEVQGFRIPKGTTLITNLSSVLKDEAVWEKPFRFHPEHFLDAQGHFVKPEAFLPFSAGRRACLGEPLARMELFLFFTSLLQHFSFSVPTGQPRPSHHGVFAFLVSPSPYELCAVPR

inhibition at 10 min, 3 μM (CYP2D6) [%]	inhibition at 10 min, 3 μM (CYP3A4) [%]	FPO ([1]; PO 5 mg/kg, IV 2 mg/kg) [%]	Fpo (%) ([1]; PO 5 mg/kg, IV 2 mg/kg)	clearance ([1]; IV 2 mg/kg) [mL/min/kg]	AUC(0-t) [1, 2] [ng·h/mL]	Cmax ([1]; IV 2 mg/kg, read-out: IV Cmax) [ng/mL]	Vd ([1]; IV 2 mg/kg) [L/kg]	AUC(0-t) [1, 3] [ng·h/mL]	Cmax [1, 4] [ng/mL]	SMILES
81	94	146	65	85.6	359	284	8.78	1310	153	N[C@H](CNc1ncc(-c2ccc3cnccc3c2)s1)CN1CCC(C(F)(F)F)CC1 [Comparative Example 25′, reference compound]
78	87	27	20	50.9	651	422	6.17	432	86	N[C@H](CNc1ncc(-c2ccc3cnccc3c2)s1)Cc1ccc(C(F)(F)F)cc1 [4′, reference compound]
79	86	4	3	97.9	336	490	4.55	30	8	CC(F)(F)c1ccc(C[C@H](N)CNc2ncc(-c3ccc4cnccc4c3)s2)cn1 [7′, reference compound]
88	86	4	4	108	299	412	6.67	30	13	CC(F)(F)c1ccc([C@H](O)[C@H](N)CNc2ncc(-c3ccc4cnccc4c3)s2)cc1 [38′, reference compound]
